The results in this text go back to ChEMBL document CHEMBL1137407, “Identification and optimization of anthranilic sulfonamides as novel, selective cholecystokinin-2 receptor antagonists” (J Med Chem, 2006).

pKi: −log10 of the molar value.

Usually pKi stands for the Ki on a negative log10 scale, so that one unit is a factor of ten. As usually defined, the Ki is the equilibrium dissociation constant of an inhibitor or competing ligand from its target.

Test [1] deals with T1, Cholecystokinin receptor type A (Homo sapiens, UniProt P32238).
T1 sequence (P32238 whole entry): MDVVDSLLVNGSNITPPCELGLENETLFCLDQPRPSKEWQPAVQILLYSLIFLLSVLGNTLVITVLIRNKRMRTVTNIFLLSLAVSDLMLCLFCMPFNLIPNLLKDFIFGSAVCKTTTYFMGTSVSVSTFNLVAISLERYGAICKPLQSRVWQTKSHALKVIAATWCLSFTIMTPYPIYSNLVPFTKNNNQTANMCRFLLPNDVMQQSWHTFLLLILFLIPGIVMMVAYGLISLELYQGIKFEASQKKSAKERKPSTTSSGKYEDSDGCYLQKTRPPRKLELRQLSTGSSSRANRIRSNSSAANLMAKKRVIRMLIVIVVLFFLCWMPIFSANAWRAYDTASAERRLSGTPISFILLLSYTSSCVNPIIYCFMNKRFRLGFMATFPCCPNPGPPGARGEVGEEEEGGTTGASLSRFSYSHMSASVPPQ
To be noted: for pKi: read-out: Ki.
Description: Displacement of [125I]CCK-8S from human CCK1R

Test [2] has as its target T2, Gastrin/cholecystokinin type B receptor (Homo sapiens, UniProt P32239).
T2 sequence (P32239 whole entry): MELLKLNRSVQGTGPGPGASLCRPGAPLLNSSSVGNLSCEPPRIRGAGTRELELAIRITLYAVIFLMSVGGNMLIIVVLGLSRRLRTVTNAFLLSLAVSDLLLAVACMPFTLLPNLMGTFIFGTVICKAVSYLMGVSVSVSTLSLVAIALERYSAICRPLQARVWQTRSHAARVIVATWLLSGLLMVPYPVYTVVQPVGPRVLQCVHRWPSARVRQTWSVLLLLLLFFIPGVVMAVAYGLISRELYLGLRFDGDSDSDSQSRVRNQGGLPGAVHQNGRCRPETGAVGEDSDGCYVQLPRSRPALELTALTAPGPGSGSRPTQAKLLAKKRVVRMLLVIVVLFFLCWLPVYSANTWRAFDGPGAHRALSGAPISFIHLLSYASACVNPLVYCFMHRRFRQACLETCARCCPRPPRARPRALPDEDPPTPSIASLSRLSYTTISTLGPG
Particulars: for Ki: read-out: Log Ki (converted); for pKi: read-out: Ki.
Description: Displacement of [125I]CCK-8S from human CCK2R

On to `COc1cc(C(=O)N2CCCCC2)c(NS(=O)(=O)c2cccc3nsnc23)cc1Cl`, for which the negative-log Ki (pKi) in test [1] was under 5.00. The Ki in test [2] is 0.501 µM.

As for `O=C(Nc1ccc(C(=O)N2CCCCC2)c(NS(=O)(=O)c2cccc3nsnc23)c1)c1ccccc1`, in test [2], the inhibition constant Ki is 7.94 µM.

As for `O=C(O)[C@@H]1CCCN1C(=O)c1ccc(Cl)cc1NS(=O)(=O)c1cccc2nsnc12`, the negative logarithm of the Ki (pKi) in test [1] and in test [2] was under 5.00 each time.

Take `COc1cc(NS(=O)(=O)c2cccc3nsnc23)c(C(=O)N2CCCCC2)cc1OC`: the pKi in test [1] is under 5.00. The Ki in test [2] was 2.51 µM.

For `CN1CCN(C(=O)c2ccc(Cl)cc2NS(=O)(=O)c2cccc3nsnc23)CC1`, in test [1], the negative logarithm of the Ki (pKi) was under 5.00. For the same molecule, in test [2], the inhibition constant Ki was 2.51 µM.

As for `O=C(c1cc(Br)ccc1NS(=O)(=O)c1cccc2nsnc12)N1CCCCC1`, the inhibition constant (Ki) in test [2] was 0.794 µM.

For the molecule `O=C(c1ccccc1NS(=O)(=O)c1cc2ccccc2[nH]1)N1CCCCC1`, the inhibitory constant (Ki) in test [1] (read-out: Log Ki (converted)) was 7.94 µM. The negative logarithm of the Ki (pKi) in test [2] was under 5.00.

Take `O=C(c1ccc(-n2cccc2)cc1NS(=O)(=O)c1cccc2nsnc12)N1CCCCC1`: the pKi in test [1] is under 5.00. The inhibition constant (Ki) in test [2] is 0.501 µM.

Turning to `O=C(c1cc(Br)c(Br)cc1NS(=O)(=O)c1cccc2nsnc12)N1CCCCC1`, the pKi in test [1] is under 5.00. In addition, the Ki in test [2] is 0.01 µM.

As to `O=C(c1ccc(Cl)cc1NS(=O)(=O)c1cccc2nsnc12)N1CCC[C@H]1CN1CCCC1`, the pKi in test [1] and in test [2] was under 5.00 each time.

As for `C[C@@H]1COC[C@H](C)N1C(=O)c1ccc(Cl)cc1NS(=O)(=O)c1cccc2nccnc12`, in test [1], the pKi is under 5.00. The Ki in test [2] is 0.631 µM.

Regarding `O=C(c1ccccc1NS(=O)(=O)c1cccc2nsnc12)N1CCCCC1`, the pKi in test [2] was under 5.00.

Take `CN(c1cc(Br)ccc1C(=O)N1CCCCC1)S(=O)(=O)c1cccc2nsnc12`: the negative logarithm of the Ki (pKi) in test [1] and in test [2] was under 5.00 throughout.

Take `O=C(c1ccc(NCc2ccccc2)cc1NS(=O)(=O)c1cccc2nsnc12)N1CCCCC1`: the negative logarithm of the Ki (pKi) in test [1] was under 5.00. Besides, the Ki in test [2] is 1.26 µM.

With `O=C(c1ccc(Br)cc1NS(=O)(=O)c1cccc2nccnc12)N1CCOCC1`, the pKi in test [1] was under 5.00.

For `O=C(c1ccc(Cl)cc1NS(=O)(=O)c1cccc2nsnc12)N1CCCC1`, the pKi in test [1] was under 5.00. Also, the Ki in test [2] was 0.251 µM.

For `O=C(c1cccc(Cl)c1NS(=O)(=O)c1cccc2nsnc12)N1CCCCC1`, the pKi in test [1] and in test [2] was under 5.00 each time.

In the case of `Cc1cccc(C(=O)N2CCCCC2)c1NS(=O)(=O)c1cccc2nsnc12`, the negative logarithm of the Ki (pKi) in test [1] and in test [2] was under 5.00 each time.

Consider `O=C(c1ccc(Cl)cc1NS(=O)(=O)c1cccc2nsnc12)N1CCSC1`, for which, in test [1], the negative logarithm of the Ki (pKi) was under 5.00.

Consider `O=C(c1ccc(Br)cc1NS(=O)(=O)c1c(F)ccc2nsnc12)N1CCCCC1`, for which, in test [1], the negative-log Ki (pKi) is under 5.00. For the same molecule, the inhibition constant Ki in test [2] was 0.0398 µM.

For the molecule `Nc1ccc(C(=O)N2CCCCC2)c(NS(=O)(=O)c2cccc3nsnc23)c1`, in test [1], the pKi is under 5.00. Also, in test [2], the Ki is 7.94 µM.

`Cc1ccc2nsnc2c1S(=O)(=O)Nc1cc(Br)ccc1C(=O)N1CCCCC1`: the pKi in test [1] is under 5.00. Further, in test [2], the Ki is 0.1 µM.

With `O=C(c1ccc(F)cc1NS(=O)(=O)c1cccc2nsnc12)N1CCCCC1`, in test [2], the Ki is 1 µM.

As to `CC(C)c1ccc(C(=O)N2CCCCC2)c(NS(=O)(=O)c2cccc3nsnc23)c1`, in test [1], the pKi was under 5.00. For the same molecule, the Ki in test [2] is 0.316 µM.

In the case of `O=C(N[C@@H](Cc1ccccc1)C(=O)O)c1ccccc1NS(=O)(=O)c1cc2ccccc2[nH]1`, in test [2], the Ki was 5.01 µM.

Turning to `O=C(c1ccc(Cl)cc1NS(=O)(=O)c1cccc2nccnc12)N1CCOCC1`, the pKi in test [1] was under 5.00.

In the case of `O=C(c1ccc(I)cc1NS(=O)(=O)c1cccc2nsnc12)N1CCOCC1`, the pKi in test [1] was under 5.00.

Take `O=C(N[C@@H](Cc1ccccc1)C(=O)O)c1ccc(Br)cc1NS(=O)(=O)c1cc2ccccc2[nH]1`: the Ki in test [2] is 2 µM.

For `O=C(c1ccc([N+](=O)[O-])cc1NS(=O)(=O)c1cccc2nsnc12)N1CCCCC1`, the pKi in test [1] was under 5.00.
